Measurements from patent USRE37919E1, “Recombinant DNA method for production of parathyroid hormone” (The General Hospital Corporation, priority 1989, dated 2002).
Where two headings read alike, the source gives them in different places.

What was measured:
opossum kidney cells [1] = test: Binding to opossum kidney cells; details: FIG. 3
Method: (§1) The recombinant peptide produced as described in Example 1 above was tested for it binding to two cells types.

[2] = tested on: UMR rat osteosarcoma cell line; test: Binding to UMR rat osteosarcoma cell line; details: FIG. 4
Method: as §1

opossum kidney cells [3] = format: cell-based
Description: (§2) Therefore, the recombinant peptide had PTH biological activity which is largely indistinguishable from that of a known active fragment.

UMR cells = test: Cyclic AMP response of UMR tumor cells; format: cell-based, rat; details: FIG. 6, read-out: EC50 of cyclic AMP stimulation
Description: as §2

PTH receptors = target: T1, PTH receptors (Homo sapiens, UniProt Q03431); details: literature; cited from earlier work
T1 sequence (Q03431 27-593): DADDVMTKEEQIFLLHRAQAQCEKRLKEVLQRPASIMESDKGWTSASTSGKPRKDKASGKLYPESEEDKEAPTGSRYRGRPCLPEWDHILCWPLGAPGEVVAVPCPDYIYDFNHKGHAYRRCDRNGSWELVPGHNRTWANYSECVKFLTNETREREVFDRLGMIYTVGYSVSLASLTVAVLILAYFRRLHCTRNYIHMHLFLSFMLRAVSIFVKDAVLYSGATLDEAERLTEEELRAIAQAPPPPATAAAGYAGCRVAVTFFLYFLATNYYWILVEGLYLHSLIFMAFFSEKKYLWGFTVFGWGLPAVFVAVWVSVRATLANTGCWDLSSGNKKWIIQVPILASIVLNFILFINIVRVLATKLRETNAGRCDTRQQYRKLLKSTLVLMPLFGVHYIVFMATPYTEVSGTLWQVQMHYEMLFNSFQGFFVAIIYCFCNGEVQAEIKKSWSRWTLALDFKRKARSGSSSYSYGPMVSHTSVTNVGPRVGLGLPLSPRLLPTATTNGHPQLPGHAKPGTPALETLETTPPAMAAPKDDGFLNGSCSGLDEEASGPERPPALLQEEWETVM

Compound	half-maximal binding (opossum kidney cells [1])	half-maximum value of binding [2]	EC50 (opossum kidney cells [3])	EC50 (UMR cells)	PTH antagonist activity in vitro (PTH receptors)	EC50 (opossum kidney cells [3]; opossum kidney cells, FIG. 5, read-out: EC50 of cyclic AMP stimulation)
CC[C@H](C)[C@H](NC(=O)[C@H](CCC(=O)O)NC(=O)[C@H](CO)NC(=O)[C@@H](NC(=O)[C@@H](N)CO)C(C)C)C(=O)N[C@@H](CCC(N)=O)C(=O)N[C@@H](CC(C)C)C(=O)N[C@@H](CCSC)C(=O)N[C@@H](Cc1c[nH]cn1)C(=O)N[C@@H](CC(N)=O)C(=O)N[C@@H](CC(C)C)C(=O)NCC(=O)N[C@@H](CCCCN)C(=O)N[C@@H](Cc1c[nH]cn1)C(=O)N[C@@H](CC(C)C)C(=O)N[C@@H](CC(N)=O)C(=O)N[C@@H](CO)C(=O)N[C@@H](CCSC)C(=O)N[C@@H](CCC(=O)O)C(=O)N[C@@H](CCCNC(=N)N)C(=O)N[C@H](C(=O)N[C@@H](CCC(=O)O)C(=O)N[C@@H](Cc1c[nH]c2ccccc12)C(=O)N[C@@H](CC(C)C)C(=O)N[C@@H](CCCNC(=N)N)C(=O)N[C@@H](CCCCN)C(=O)N[C@@H](CCCCN)C(=O)N[C@@H](CC(C)C)C(=O)N[C@@H](CCC(N)=O)C(=O)N[C@@H](CC(=O)O)C(=O)N[C@H](C(=O)N[C@@H](Cc1c[nH]cn1)C(=O)N[C@@H](CC(N)=O)C(=O)N[C@@H](Cc1ccccc1)C(=O)O)C(C)C)C(C)C [synthetic PTH(1-34)]	about 1 nM	about 2 nM	~4 nM	~0.1 nM		
PTH (3-34): synthetic analog of bovine PTH, recognized PTH antagonist (SEIQFMHNLGKHLSSMERVEWLRKKLQDVHNF; Parathyroid hormone; UniProt P01268 34-65, looked up, fragment)					potent PTH antagonist	
human parathyroid hormone 1-84 [recombinant hPTH(1-84)]	about 3 nM	about 10 nM		~3 nM		~10 nM
